From patent EP0396317B1, “Pharmaceutical composition” (priority 1989, dated 1990)

Experiment: solubility and pH-dependent separation of the carbenoxolone/chlorhexidine complex
Format: physicochemical

SMILES: [H]/N=C(\N/C(=N/[H])NCCCCCCNC(=N)NC(=N)Nc1ccc(Cl)cc1)Nc1ccc(Cl)cc1 [chlorhexidine]
- behaviour of the complex suspension at high pH (pH 9.0 or more): can be separated by filtration
- behaviour of the complex suspension at low pH (pH less than 3.5 / 3.5 or less): will remain in solution
